Patent US20090264415A2 (priority 2004, published 2009)
Read-outs that look alike come from different tables or passages of the source.

Key:
[1] = test system: peripheral blood mononuclear cells (PBMC) stimulated with allogeneic PBMC or EBV-transformed human B cells (RPMI1788); experiment: Mixed lymphocyte reaction (MLR) assay; assay type: cell-based
Outline: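 Compounds, held as 10 mM DMSO stocks and diluted in culture medium, were added to PBMC stimulated by 30 Gy-irradiated allogeneic PBMC or RPMI1788 cells. Proliferation was read as [3H]-thymidine uptake (1 μCi, final 16 h) after 5 days at 37° C. Inhibition was derived from cpm.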

[2] = test system: production of human TNF-α by PBMC in response to LPS; experiment: TNF-α assay (LPS-stimulated PBMC, sandwich ELISA); assay type: cell-based
Description: Peripheral blood mononuclear cells (herein referred as PBMC), in response to stimulation by lipopolysaccharide (hereinafter LPS), a gram-negative bacterial endotoxin, produce various […], in particular human TNF-α. Inhibition of the activation of PBMC can therefore be measured by the level of suppression of the production of TNF-α by PBMC in response to stimulation by LPS. Inhibition measurement was performed as follows: PBMC were isolated from heparinized peripheral blood by density gradient centrifugation over Lymphoprep (commercially available from Nycomed, Norway). LPS was then added to the PMBC suspension in complete medium (10^6 cells/ml) at a final concentration of 1 μg/ml. The pteridine derivative to be tested was added at different concentrations (0.1 μM, 1 μM and 10 μM) and the cells were incubated at 37° C. for 72 hours in 5% CO2. The supernatants were collected, then TNF-α concentrations were measured with respectively an anti-TNF-α antibody in a sandwich ELISA (Duo Set ELISA human TNFα, commercially available from R&D Systems, United Kingdom). The colorimetric reading of the ELISA was measured by a Multiskan RC plate reader (commercially available from ThermoLabsystems, Finland) at 450 nm (reference wavelength: 690 nm). Data analysis was performed with Ascent software 2.6. (also from ThermoLabsystems, Finland): a standard curve (recombinant human TNFα) was drawn and the amount (pg/ml) of each sample on the standard curve was determined. The % suppression of human TNFα production by the pyrido[3,2-d]pyrimidine derivatives of the invention was calculated using the formula: [formula]

[3] = Homo sapiens, RPMI-1788, 50% suppression of the MLR, [3H]-thymidine incorporation, read-out: MLR
[4] = Homo sapiens, PBMC, LPS 1 μg/ml, 72 hours, read-out: TNF α
[5] = 50% suppression of the MLR, [3H]-thymidine incorporation, read-out: MLR
[6] = LPS 1 μg/ml, 72 hours, read-out: TNF α

In the case of COc1ccc(-c2ccc3nc(N)nc(Nc4cccc(Br)c4)c3n2)cc1OC [Example 29, 2-amino-4-(3-bromo-anilino)-6-(3,4-dimethoxyphenyl)pyrido[3,2-d]-pyrimidine], the IC50 [1, 3] is reported as 0.7 µM and the IC50 [2, 4] is reported as 0.8 µM.
With COc1ccc(-c2ccc3nc(N(C)C)nc(N4CCN(C(=O)Nc5cccc(C)c5)CC4)c3n2)cc1OC [Example 15] the IC50 [1, 5] was 0.4 µM and the IC50 [2, 6] was 3.3 µM.
For COc1nc(N2CCN(C(=O)Nc3cccc(C)c3)CC2)c2nc(-c3ccc(OC)c(OC)c3)ccc2n1 [Example 90, 2-methoxy-4-[(N-3-methyl-phenylcarbamoyl)-piperazin-1-yl]-6-(3,4-dimethoxy-phenyl)-pyrido[3,2-d]pyrimidine], the IC50 [1, 5] was 0.14 µM and the IC50 [2, 6] was 0.5 µM.
With COc1ccc(-c2ccc3nc(N)nc(NC4CCCN(C(=O)Nc5cccc(C)c5)C4)c3n2)cc1OC (stereo not shown) [Example 264, 2-amino-4-[(3-methylphenylcarbamoylpiperidin-3-yl)amino)-6-(3,4-dimethoxyphenyl]-pyrido[3,2-d]pyrimidine] the IC50 [1, 3] was 0.5 µM and the IC50 [2, 4] was 1.8 µM.
COc1ccc(-c2ccc3nc(N)nc(OCCOc4ccccc4)c3n2)cc1OC [Example 25, 2-amino-4-(2-phenoxyethoxy)-6-(3,4-dimethoxyphenyl)-pyrido[3,2-d]pyrimidine] was tested, and the IC50 [1, 3] was 0.3 µM and the IC50 [2, 4] was 0.7 µM.
In the case of Nc1nc(N2CCOCC2)c2nc(-c3ccco3)ccc2n1 [Example 232, 2-amino-4-morpholino-6-(2-furan)-pyrido[3,2-d]pyrimidine], the IC50 [1, 5] is reported as 5.3 µM and the IC50 [2, 6] is reported as 5.3 µM.
Cc1ccc(-c2ccc3nc(N)nc(N4CCOCC4)c3n2)s1 [Example 235, 2-amino-4-morpholino-6-(5-methyl-2-thienyl)-pyrido[3,2-d]pyrimidine] was tested, and the IC50 [1, 3] was 3.4 µM and the IC50 [2, 4] was 1.8 µM.
Molecule COc1ccc(-c2ccc3nc(N)nc(NCCNC(=O)COc4ccc(Cl)cc4)c3n2)cc1OC [Example 265] has an IC50 [1, 3] of 0.3 µM and an IC50 [2, 4] of 3.9 µM.
Work on COc1ccc(-c2ccc3nc(N)nc(N4CCN(CC(=O)NCCc5ccccc5)CC4)c3n2)cc1OC [Example 270, 2-amino-4-[4-(N-2-phenylethylacetamid-2-yl)piperazin-1-yl]-6-(3,4-dimethoxyphenyl)-pyrido[3,2-d]pyrimidine] yielded an IC50 [2, 4] of 0.3 µM.
For COc1cc(-c2ccc3nc(N)nc(N4CCOCC4)c3n2)ccc1O [Example 96, 2-amino-4-(N-morpholino)-6-(4-hydroxy-3-methoxy)-pyrido[3,2-d]pyrimidine], the IC50 [1, 5] was 0.8 µM and the IC50 [2, 6] was 0.6 µM.
COc1ccc(-c2ccc3nc(N)nc(N4CCCN(C(=O)Nc5cccc(C)c5)CC4)c3n2)cc1OC [Example 250, 2-amino-4-[(N-3-methylphenylcarbamoyl)-homopiperazin-1-yl]-6-(3,4-dimethoxyphenyl)-pyrido[3,2-d]pyrimidine] showed an IC50 [1, 3] of 0.0085 µM and an IC50 [2, 4] of 0.6 µM.
Molecule Nc1nc(N2CCOCC2)c2nc(-c3ccc(F)c(F)c3)ccc2n1 [Example 243, 2-amino-4-morpholino-6-(3,4-difluorophenyl)-pyrido[3,2-d]pyrimidine] has an IC50 [1, 3] of 2.3 µM and an IC50 [2, 4] of 6 µM.
COc1ccc(-c2ccc3ncnc(N4CCNCC4)c3n2)cc1C [Example 116, 4-(piperazin-1-yl)-6-(3-methyl-4-methoxyphenyl)-pyrido[3,2-d]pyrimidine] gave an IC50 [1, 3] of 5.1 µM and an IC50 [2, 4] of 8.1 µM.
In the case of COc1ccc(-c2ccc3nc(N)nc(NCC(OC)OC)c3n2)cc1OC [Example 34, 2-amino-4-(2,2-dimethoxyethylamino)-6-(3,4-dimethoxyphenyl)pyrido[3,2-d]pyrimidine], the IC50 ([1]; Homo sapiens, RPMI-1788, read-out: MLR (μM)) is reported as 0.8 µM and the IC50 ([2]; Homo sapiens, PBMC, 72 h, read-out: TNF α (μM)) is reported as 0.6 µM.
COc1ccc(-c2ccc3nc(N)nc(N4CCN(CC(=O)N5CCCC5)CC4)c3n2)cc1OC [Example 273, 2-amino-4-(N-pyrrolidinyl-acetamid-2-yl-piperazin-1-yl)-6-(3,4-dimethoxyphenyl)pyrido[3,2-d]pyrimidine] showed an IC50 [2, 4] of 0.08 µM.
In the case of Cc1cc(-c2ccc3nc(N)nc(N4CCOCC4)c3n2)ccc1F [Example 244, 2-amino-4-morpholino-6-(4-fluoro-3-methylphenyl)-pyrido[3,2-d]pyrimidine], the IC50 [1, 3] is reported as 3.8 µM and the IC50 [2, 4] is reported as 7.2 µM.
COc1ccc(-c2ccc3nc(N)nc(N4CCN(Cc5ccc6c(c5)OCO6)CC4)c3n2)cc1OC [Example 50, 2-amino-4-(1-piperonyl-piperazin-1-yl)-6-(3,4-dimethoxyphenyl)-pyrido[3,2-d]pyrimidine] gave an IC50 [1, 5] of 7.4 µM and an IC50 [2, 6] of 8.5 µM.
With COc1ccc(-c2ccc3nc(N)nc(N4CCN(C(=O)Nc5cc(Cl)nc(Cl)c5)CC4)c3n2)cc1OC [Example 55, 2-amino-4(N-2,6-dichloro-pyridinyl-carbamoyl-piperazin-1-yl)-6-(3,4-dimethoxyphenyl)-pyrido[3,2-d]pyrimidine] the IC50 [1, 5] was 0.3 µM and the IC50 [2, 6] was 0.4 µM.
Work on COc1ccc(-c2ccc3ncnc(N4CCN(C(=O)Nc5cccc(Cl)c5)CC4)c3n2)cc1OCC1CC1 [Example 215, 4-[N-(3-chloro-phenylcarbamoyl)-piperazin-1-yl]-6-(3-cyclopropylmethoxy-4-methoxy-phenyl)-pyrido[3,2-d]pyrimidine] yielded an IC50 [1, 3] of 0.2 µM and an IC50 [2, 4] of 0.8 µM.
Nc1nc(N2CCOCC2)c2nc(-c3ccsc3)ccc2n1 [Example 233, 2-amino-4-morpholino-6-(3-thiophene)-pyrido[3,2-d]pyrimidine] showed an IC50 [1, 5] of 4.4 µM and an IC50 [2, 6] of 3.7 µM.
COc1ccc(-c2ccc3nc(N)nc(N4CCN(CC(=O)N5CCOCC5)CC4)c3c2)cc1OC [Example 275, 2-amino-4-[N-(piperazino)-acetyl-morpholino]-6-(3,4-dimethoxyphenyl)-pyrido[3,2-d]pyrimidine] was tested, and the IC50 [2, 4] was 0.097 µM.
Work on COc1ccc(-c2ccc3nc(N)nc(N4CC[C@H](N)C4)c3n2)cc1OC [Example 219, 2-amino-4-[(S)-3-(amino)pyrrolidine]-6-(3,4-dimethoxyphenyl)-pyrido[3,2-d]pyrimidine] yielded an IC50 [1, 3] of 5.5 µM and an IC50 [2, 4] of 1.9 µM.
For COc1ccc(-c2ccc3nc(N)nc(N4CCOCC4)c3n2)cc1C [Example 163, 2-amino-4-(morpholino)-6-(3-methyl-4-methoxyphenyl)pyrido[3,2-d]pyrimidine], the IC50 [1, 3] was 3.6 µM and the IC50 [2, 4] was 6.5 µM.
Work on COc1ccc(-c2ccc3nc(N)nc(Nc4ccc5c(c4)OCO5)c3n2)cc1OC [Example 28, 2-amino-4-[3,4-(methylenedioxy)aniline]-6-(3,4-dimethoxyphenyl)pyrido[3,2-d]pyrimidine] yielded an IC50 [1, 5] of 0.7 µM and an IC50 [2, 6] of 0.8 µM.
In the case of COc1ccc(-c2ccc3nc(N)nc(N4CCN(Cc5ccccc5)CC4)c3n2)cc1OC [Example 52, 2-amino-4-(1-benzylpiperazin-1-yl)-6-(3,4-dimethoxyphenyl)-pyrido[3,2-d]pyrimidine], the IC50 [1, 5] is reported as 0.8 µM and the IC50 [2, 6] is reported as 0.46 µM.
CCOc1ccc(-c2ccc3nc(N)nc(N4CCOCC4)c3n2)cc1OC [Example 97, 2-amino-4-(N-morpholino)-6-(4-ethoxy-3-methoxyphenyl)-pyrido[3,2-d]pyrimidine] showed an IC50 [1, 5] of 0.5 µM and an IC50 [2, 6] of 0.3 µM.
With COc1cc(-c2ccc3nc(N)nc(N4CCN(C(=O)Nc5cccc(C)c5)CC4)c3n2)ccc1O [Example 104, 2-amino-4-[(N-3-methyl-phenyl-carbamoyl)-piperazin-1-yl]-6-(4-hydroxy-3-methoxyphenyl)-pyrido[3,2-d]pyrimidine] the IC50 [1, 5] was 0.4 µM and the IC50 [2, 6] was 0.3 µM.
Molecule Nc1nc(N2CCOCC2)c2nc(-c3ccc4[nH]ccc4c3)ccc2n1 [Example 237, 2-amino-4-morpholino-6-(5-indolyl)-pyrido[3,2-d]pyrimidine] has an IC50 [1, 3] of 0.8 µM and an IC50 [2, 4] of 2.6 µM.
COc1ccc(-c2ccc3nc(N)nc(NC4CCCN(C(=O)OCc5ccccc5)C4)c3n2)cc1OC (stereo not shown) [Example 258, 2-amino-4-[(1-Cbz-piperidin-3-yl)amino]-6-(3,4-dimethoxyphenyl)-pyrido[3,2-d]pyrimidine] showed an IC50 [1, 3] of 0.9 µM and an IC50 [2, 4] of 0.3 µM.
COc1ccc(-c2ccc3nc(N)nc(NCC(=O)N4CCN(C)CC4)c3n2)cc1OC [Example 276, 2-amino-4-[2-amino-1-(4-methyl-piperazin-1-yl)-ethanone]-6-(3,4-dimethoxyphenyl)-pyrido[3,2-d]pyrimidine] gave an IC50 [2, 4] of 0.6 µM.
Molecule COc1ccc(-c2ccc3nc(N)nc(N4CCN(CC(=O)Nc5ccccn5)CC4)c3n2)cc1OC [Example 274, 2-amino-4-(N-pyridinylacetamid-2-yl-piperazin-1-yl)-6-(3,4-dimethoxyphenyl)-pyrido[3,2-d]pyrimidine] has an IC50 [2, 4] of 0.08 µM.
Work on COc1ccc(-c2ccc3nc(N)nc(NCCC(=O)N4CCN(C(C)=O)CC4)c3n2)cc1OC [Example 272, 2-amino-4-[3-(4-acetylpiperazin-1-yl)-propan-3-one-1-yl-amino]-6-(3,4-dimethoxyphenyl)-pyrido[3,2-d]pyrimidine] yielded an IC50 [2, 4] of 0.7 µM.
